# Source: PubChem BioAssay AID1963830 (Molecular Pharmacology Branch, DTP, NCI, 2024)
# Test system: 922993-354-T-J3-PDC complex spheroid viability
# Test: Anticancer human tumor 922993-354-T-J3-PDC patient-derived endometrial carcinoma cell line growth inhibition [POLQ]
# Conditions: for IC50: curve of first compound; for viability, T/C: stronger effect = lower value
# Method in brief: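 Growth inhibition in 3D: complex spheroids (tumor PDC, HUVEC, MSC) treated with POLQ inhibitor combinations; where Cmax unknown, highest tested concentration 10 microM, except SN-38 at 1 microM.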
# [1] = second compound 0.0316 µM, first compound 0.00316 µM
# [2] = second compound 0.0316 µM, first compound 0.01 µM
# [3] = second compound 0.0316 µM, first compound 0.0316 µM
# [4] = second compound 0.0316 µM, first compound 0.1 µM
# [5] = second compound 0.0316 µM, first compound 0.316 µM
# [6] = second compound 0.0316 µM, first compound 1 µM
# [7] = second compound 0.1 µM, first compound 0.00316 µM
# [8] = second compound 0.1 µM, first compound 0.01 µM
# [9] = second compound 0.1 µM, first compound 0.0316 µM
# [10] = second compound 0.1 µM, first compound 0.1 µM
# [11] = second compound 0.1 µM, first compound 0.316 µM
# [12] = second compound 0.1 µM, first compound 1 µM
# [13] = second compound 0.316 µM, first compound 0.00316 µM
# [14] = second compound 0.316 µM, first compound 0.01 µM
# [15] = second compound 0.316 µM, first compound 0.0316 µM
# [16] = second compound 0.316 µM, first compound 0.1 µM
# [17] = second compound 0.316 µM, first compound 0.316 µM
# [18] = second compound 0.316 µM, first compound 1 µM
# [19] = second compound 1 µM, first compound 0.00316 µM
# [20] = second compound 1 µM, first compound 0.01 µM
# [21] = second compound 1 µM, first compound 0.0316 µM
# [22] = second compound 1 µM, first compound 0.1 µM
# [23] = second compound 1 µM, first compound 0.316 µM
# [24] = second compound 1 µM, first compound 1 µM
# [25] = second compound 3.16 µM, first compound 0.00316 µM
# [26] = second compound 3.16 µM, first compound 0.01 µM
# [27] = second compound 3.16 µM, first compound 0.0316 µM
# [28] = second compound 3.16 µM, first compound 0.1 µM
# [29] = second compound 3.16 µM, first compound 0.316 µM
# [30] = second compound 3.16 µM, first compound 1 µM
# [31] = second compound 10 µM, first compound 0.00316 µM
# [32] = second compound 10 µM, first compound 0.01 µM
# [33] = second compound 10 µM, first compound 0.0316 µM
# [34] = second compound 10 µM, first compound 0.1 µM
# [35] = second compound 10 µM, first compound 0.316 µM
# [36] = second compound 10 µM, first compound 1 µM
# [37] = second compound 0.0316 µM, first compound 3.16 µM
# [38] = second compound 0.0316 µM, first compound 10 µM
# [39] = second compound 0.1 µM, first compound 3.16 µM
# [40] = second compound 0.1 µM, first compound 10 µM
# [41] = second compound 0.316 µM, first compound 3.16 µM
# [42] = second compound 0.316 µM, first compound 10 µM
# [43] = second compound 1 µM, first compound 3.16 µM
# [44] = second compound 1 µM, first compound 10 µM
# [45] = second compound 3.16 µM, first compound 3.16 µM
# [46] = second compound 3.16 µM, first compound 10 µM
# [47] = second compound 10 µM, first compound 3.16 µM
# [48] = second compound 10 µM, first compound 10 µM
# 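Note: spheroids exposed to the agents for one week.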
# 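Throughout, for viability, T/C: 100% = DMSO vehicle control wells.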
smiles,measurement,setting,value
C=CCn1c(=O)c2cnc(Nc3ccc(N4CCN(C)CC4)cc3)nc2n1-c1cccc(C(C)(C)O)n1 + COC1C(OC(N)=O)C(O)C(Oc2ccc3c(O)c(NC(=O)c4ccc(O)c(CC=C(C)C)c4)c(=O)oc3c2C)OC1(C)C,IC50,second compound 0.0316 µM,> 1000 nM
same,IC50,second compound 0.1 µM,> 1000 nM
same,IC50,second compound 0.316 µM,> 1000 nM
same,IC50,second compound 1 µM,> 1000 nM
same,IC50,second compound 3.16 µM,> 1000 nM
same,IC50,second compound 10 µM,> 1000 nM
same,"viability, T/C",[1],91.7%
same,"viability, T/C",[2],105%
same,"viability, T/C",[3],97.4%
same,"viability, T/C",[4],101%
same,"viability, T/C",[5],118%
same,"viability, T/C",[6],94.9%
same,"viability, T/C",[7],94%
same,"viability, T/C",[8],96.3%
same,"viability, T/C",[9],101%
same,"viability, T/C",[10],102%
same,"viability, T/C",[11],106%
same,"viability, T/C",[12],103%
same,"viability, T/C",[13],101%
same,"viability, T/C",[14],104%
same,"viability, T/C",[15],85%
same,"viability, T/C",[16],95.4%
same,"viability, T/C",[17],102%
same,"viability, T/C",[18],84.9%
same,"viability, T/C",[19],108%
same,"viability, T/C",[20],95.7%
same,"viability, T/C",[21],88.9%
same,"viability, T/C",[22],96.2%
same,"viability, T/C",[23],100%
same,"viability, T/C",[24],93.4%
same,"viability, T/C",[25],94.4%
same,"viability, T/C",[26],97.7%
same,"viability, T/C",[27],101%
same,"viability, T/C",[28],91.1%
same,"viability, T/C",[29],102%
same,"viability, T/C",[30],91.3%
same,"viability, T/C",[31],94.6%
same,"viability, T/C",[32],69.8%
same,"viability, T/C",[33],78%
same,"viability, T/C",[34],88.8%
same,"viability, T/C",[35],106%
same,"viability, T/C",[36],81.2%
CCCS(=O)(=O)Nc1ccc(F)c(C(=O)c2c[nH]c3ncc(-c4ccc(Cl)cc4)cc23)c1F + COC1C(OC(N)=O)C(O)C(Oc2ccc3c(O)c(NC(=O)c4ccc(O)c(CC=C(C)C)c4)c(=O)oc3c2C)OC1(C)C,IC50,second compound 0.0316 µM,> 10000 nM
same,IC50,second compound 0.1 µM,> 10000 nM
same,IC50,second compound 0.316 µM,> 10000 nM
same,IC50,second compound 1 µM,> 10000 nM
same,IC50,second compound 3.16 µM,> 10000 nM
same,IC50,second compound 10 µM,> 10000 nM
same,"viability, T/C",[3],98.7%
same,"viability, T/C",[4],97%
same,"viability, T/C",[5],97.3%
same,"viability, T/C",[6],110%
same,"viability, T/C",[37],106%
same,"viability, T/C",[38],68.6%
same,"viability, T/C",[9],102%
same,"viability, T/C",[10],103%
same,"viability, T/C",[11],103%
same,"viability, T/C",[12],110%
same,"viability, T/C",[39],102%
same,"viability, T/C",[40],83.6%
same,"viability, T/C",[15],112%
same,"viability, T/C",[16],102%
same,"viability, T/C",[17],107%
same,"viability, T/C",[18],109%
same,"viability, T/C",[41],93%
same,"viability, T/C",[42],67.1%
same,"viability, T/C",[21],93.6%
same,"viability, T/C",[22],103%
same,"viability, T/C",[23],101%
same,"viability, T/C",[24],103%
same,"viability, T/C",[43],90.5%
same,"viability, T/C",[44],86.8%
same,"viability, T/C",[27],94.7%
same,"viability, T/C",[28],103%
same,"viability, T/C",[29],95.9%
same,"viability, T/C",[30],94.1%
same,"viability, T/C",[45],101%
same,"viability, T/C",[46],73.8%
same,"viability, T/C",[33],90%
same,"viability, T/C",[34],84.3%
same,"viability, T/C",[35],79.8%
same,"viability, T/C",[36],85.1%
same,"viability, T/C",[47],90.4%
same,"viability, T/C",[48],59.5%
CNCc1ccc(-c2[nH]c3cc(F)cc4c3c2CCNC4=O)cc1 + COC1C(OC(N)=O)C(O)C(Oc2ccc3c(O)c(NC(=O)c4ccc(O)c(CC=C(C)C)c4)c(=O)oc3c2C)OC1(C)C,IC50,second compound 0.0316 µM,> 10000 nM
same,IC50,second compound 0.1 µM,> 10000 nM
same,IC50,second compound 0.316 µM,> 10000 nM
same,IC50,second compound 1 µM,> 10000 nM
same,IC50,second compound 3.16 µM,> 10000 nM
same,IC50,second compound 10 µM,> 10000 nM
same,"viability, T/C",[3],104%
same,"viability, T/C",[4],100%
same,"viability, T/C",[5],98.3%
same,"viability, T/C",[6],109%
same,"viability, T/C",[37],105%
same,"viability, T/C",[38],85.4%
same,"viability, T/C",[9],107%
same,"viability, T/C",[10],106%
same,"viability, T/C",[11],94.3%
same,"viability, T/C",[12],90%
same,"viability, T/C",[39],91.5%
same,"viability, T/C",[40],78.6%
same,"viability, T/C",[15],102%
same,"viability, T/C",[16],103%
same,"viability, T/C",[17],108%
same,"viability, T/C",[18],90.3%
same,"viability, T/C",[41],85.8%
same,"viability, T/C",[42],81.3%
same,"viability, T/C",[21],102%
same,"viability, T/C",[22],101%
same,"viability, T/C",[23],98.2%
same,"viability, T/C",[24],107%
same,"viability, T/C",[43],89%
same,"viability, T/C",[44],77.4%
same,"viability, T/C",[27],95.5%
same,"viability, T/C",[28],89.9%
same,"viability, T/C",[29],86.6%
same,"viability, T/C",[30],79%
same,"viability, T/C",[45],108%
same,"viability, T/C",[46],70.1%
same,"viability, T/C",[33],95.4%
same,"viability, T/C",[34],80.8%
same,"viability, T/C",[35],80.9%
same,"viability, T/C",[36],73.1%
same,"viability, T/C",[47],86.7%
same,"viability, T/C",[48],78.8%
COc1cccc(OCCCN)c1-c1cc(Nc2cnc(C#N)cn2)n[nH]1 + COC1C(OC(N)=O)C(O)C(Oc2ccc3c(O)c(NC(=O)c4ccc(O)c(CC=C(C)C)c4)c(=O)oc3c2C)OC1(C)C,IC50,second compound 0.0316 µM,204 nM
same,IC50,second compound 0.1 µM,187 nM
same,IC50,second compound 0.316 µM,175 nM
same,IC50,second compound 1 µM,159 nM
same,IC50,second compound 3.16 µM,159 nM
same,IC50,second compound 10 µM,160 nM
same,"viability, T/C",[1],92.4%
same,"viability, T/C",[2],94%
same,"viability, T/C",[3],94.3%
same,"viability, T/C",[4],91%
same,"viability, T/C",[5],24.6%
same,"viability, T/C",[6],9.14%
same,"viability, T/C",[7],99.6%
same,"viability, T/C",[8],96.5%
same,"viability, T/C",[9],102%
same,"viability, T/C",[10],87.2%
same,"viability, T/C",[11],18.6%
same,"viability, T/C",[12],8.7%
same,"viability, T/C",[13],100%
same,"viability, T/C",[14],92.2%
same,"viability, T/C",[15],97.2%
same,"viability, T/C",[16],84.6%
same,"viability, T/C",[17],13.6%
same,"viability, T/C",[18],9.43%
same,"viability, T/C",[19],108%
same,"viability, T/C",[20],94%
same,"viability, T/C",[21],78.9%
same,"viability, T/C",[22],75.3%
same,"viability, T/C",[23],12.9%
same,"viability, T/C",[24],8.85%
same,"viability, T/C",[25],103%
same,"viability, T/C",[26],110%
same,"viability, T/C",[27],95.9%
same,"viability, T/C",[28],70%
same,"viability, T/C",[29],21.3%
same,"viability, T/C",[30],9.8%
same,"viability, T/C",[31],90.1%
same,"viability, T/C",[32],69.7%
same,"viability, T/C",[33],80.1%
same,"viability, T/C",[34],73.4%
same,"viability, T/C",[35],16.1%
same,"viability, T/C",[36],8.31%
